The text below walks through data of patent US20100184732A1, “METHOD OF LONG-TERM TREATMENT OF GRAFT-VERSUS-HOST DISEASE USING TOPICAL ACTIVE CORTICOSTEROIDS” (priority 2000, published 2010).

In one series the test system is patients with GVHD. As to conditions: high-dose prednisone, 2 mg per kg per day; cited from earlier work.
In series [1] the test system is patients with gastrointestinal GVHD. As to conditions: cited from earlier work.
Series [2] concerns patients with Grade II GVHD with gastrointestinal symptoms. Kind of series: Phase III randomized, double-blind, placebo-controlled trial of oral BDP plus 10 days of prednisone: treatment failure and survival. As to conditions: for Treatment failure rate (95% CI): Kaplan-Meier estimate. The series is classed as in vivo, human. From the text: The Secondary objectives of the study were: • 1. To compare the proportion of treatment failures in the two groups on Study Days 10, 30, 50, 60, and 80. • 2. To compare the treatment groups with respect to cumulative systemic corticosteroid exposure. • 3. […] To compare the treatment groups with respect to total deaths and cause of death through 200 days post-transplant. • 6.
To be eligible for entry into the study, patients must be at least 10 days post allogeneic hematopoietic cell transplantation, have GI symptoms consistent with Grade II GVHD, and have endoscopic evidence of GVHD. The diagnosis of GVHD was confirmed by biopsy of the intestine (esophagus, stomach, small intestine, or colon) or skin.
This was a multi-center, randomized, double-blind, placebo-controlled, parallel-group study in patients with Grade II GVHD with GI symptoms. To determine eligibility for entry into the study, patients must undergo a screening evaluation, including intestinal or skin biopsy and infection work-up.
The randomization was stratified by the source of the allograft (two HLA haplotype identical sibling versus all other), and by topical corticosteroid use (yes versus no). All patients received 10 days of prednisone at 1 mg/kg/day (or an equivalent dose of intravenous [IV] corticosteroid).
For all patients, the second dose of study drug was administered on the morning of Study Day 2, after which dosing was 4 times daily until Study Day 50.
All patients are monitored per standard post transplant routine in the hospital or outpatient clinic. Patients underwent study evaluations, included blood specimens for PK analysis, on Study Days 10, 30, 50, 60, and 80. In addition, adverse events that occurred during the interval since the prior visit are assessed and recorded. Following the final dose of study drug on the morning of Study Day 50, timed blood samples were obtained for up to 24 hours for PK analysis from some patients.
• 1. […] Karnofsky Scale score if the patient is 16 years of age or older or the Lansky Scale score if the patient is younger than 16 years of age.
• 1. Adverse events. • 2. Cumulative prednisone dose (per kg of body weight). • 3. Worsening of GVHD as determined through the assessment of diarrhea, rash, and bilirubin levels. • 4. HPA axis function. • 5. Hematology measurements (with differential, including eosinophils) at Baseline and Study Day 50. • 6. Serum chemistry and urinalysis measurements at Baseline and Study Day 50. • 7. Patient survival through day 200 post-transplant.
The primary efficacy endpoint of this two-arm study is the time to treatment failure. The primary efficacy analysis will compare the time to treatment failure through Study Day 50 using a log-rank test controlling for patient randomization stratum. Product-limit estimates for time to failure will be provided for descriptive purposes. The null hypothesis for the log-rank test is that time to failure is homogeneous across the treatment groups.
Secondary analyses of treatment failure compared the treatment groups with respect to proportion of treatment failures and Karnofsky Scale (or Lansky Scale) scores at key time points.
Both regimens included oral prednisone (1 mg/kg/day) or an equivalent dose of IV methylprednisolone (dose of IV methylprednisolone=0.8×dose of oral prednisone) given in 2 divided doses per day on Study Days 1 to 10.
On Study Day 10, patients were evaluated for the signs and symptoms of GVHD. […] Starting on Study Day 17, physiologic replacement doses of prednisone were given for the remainder of the study. If the investigator determined that GVHD was not controlled on Study Day 10, patients discontinued study drug but continued prednisone initially at 1 mg/kg/day; these patients were considered to be treatment failures. In treatment failure cases, physicians subsequently modified prednisone dosage as deemed appropriate.

Molecules are shown by their SMILES.

Turning to `C[C@]12C=CC(=O)C=C1CC[C@@H]1[C@@H]2C(=O)C[C@@]2(C)[C@H]1CC[C@]2(O)C(=O)CO` [Prednisone, prednisone], in the series on patients with GVHD, the “complete and sustained remission of gastrointestinal symptoms” value was 50-70 % of patients.
Consider `CCC(=O)OCC(=O)[C@@]1(OC(=O)CC)[C@@H](C)C[C@H]2[C@@H]3CCC4=CC(=O)C=C[C@]4(C)[C@@]3(Cl)[C@@H](O)C[C@@]21C` [BDP, beclomethasone dipropionate], for which the “appetite, oral intake, nausea and diarrhea over the course of therapy” value in series [1] (8 mg daily oral, BDP alone and added to prednisone) was “Significant improvement”. Also, the treatment-related adverse events entry in series [1] (8 mg/day for 28 days) is “No significant treatment-related adverse events”. Besides, the time to improvement in series [1] (BDP as monotherapy) is 7 to 10 days. Besides, the “safety and efficacy in mild-to-moderate intestinal GVHD” value in series [1] (alone or added to prednisone) was “safe and effective”. Besides, the “Day 200 survival rate (95% CI)” value in series [2] (200 days post-transplant, Safety Population) is given as 0.91 (0.86, 0.98). Moreover, the “Treatment failure rate (95% CI)” value in series [2] (Study Day 10) is 0.14 (0.08, 0.24); in series [2] (Study Day 30), 0.25 (0.18, 0.37); in series [2] (Study Day 50) it was 0.31 (0.23, 0.43); in series [2] (Study Day 60) it was 0.33 (0.24, 0.45); in series [2] (Study Day 80), 0.39 (0.30, 0.52). Moreover, the “time to treatment failure through Day 50 (primary endpoint), significance versus placebo” value in series [2] (through Day 50, p-value 0.1177) was “did not achieve statistical significance”. Moreover, in series [2] (through Day 80, p-value 0.0226), the “time to treatment failure through Day 80 (secondary endpoint), significance versus placebo” value is reported as “did achieve statistical significance”.
